Measured values published in patent US11066447B2, “Aureobasidium derivatives and methods of synthesis” (AureoGen Biosciences, Inc., priority 2016, dated 2021).
Converted amounts (≈) assume the structure as drawn. Where two headings read alike, the source gives them in different places. Numbered stars: 1 amine (or outer) side, 2 acyl side, 3 side chain; on linkers, the order of the positions; unused ones are H or OH. Square brackets hold non-standard residues; d marks the D form. Peptide text beside a SMILES is read from it. ξ: configuration not given here. X13 = CN([C@@H](Cc1cccc(-c2ccc(N3CCN(C(=O)OC(C)(C)C)CC3)nc2)c1)C(=O)[*:2])[*:1]; X24 = CN([C@@H](Cc1cccc(-c2ccnc(N3CCOCC3)c2)c1)C(=O)[*:2])[*:1]; X14 = CN([C@@H](Cc1cccc(-c2ccc3ncccc3c2)c1)C(=O)[*:2])[*:1]; X18 = CN([C@@H](Cc1cccc(-c2ccc3ccncc3c2)c1)C(=O)[*:2])[*:1]; Hmp(2R,3S) = CC[C@H](C)[C@@H](O)C(=O)O; NMeVal(β-OH) = CN[C@H](C(=O)O)C(C)(C)O; X6 = CCC(C)[C@@H](O[*:1])C(=O)[*:2]; Ile(3ξ) = CCC(C)[C@H](N)C(=O)O; NMeV = CN[C@H](C(=O)O)C(C)C

What was measured:
[1] = system: A. fumigatus MMX 5280 ATCC MYA-3626; assay: MIC/MEC assay (CLSI microdilution); format: cell-based, Aspergillus fumigatus; conditions: Aspergillus fumigatus, 48 h
Protocol: (§1) Aureobasidin and test compounds (i.e., AbA derivatives of the present invention) were received from Kalexsyn, Inc. (Kalamazoo, Mich.) as powder and were stored at 4° C. until the day of assay. […] amphotericin was obtained from Sigma Aldrich and stored under like conditions. […] Ethanol (95%) was used as a solvent and diluent for all AbA compounds. Amphotericin B was tested from 0.06-64 μg/mL. Amphotericin B (Sigma Aldrich; St. Louis, Mo.; Cat No. A9528-100MG, Lot No. 120M4087) was dissolved and diluted with dimethylsulfoxide (DMSO; Sigma Aldrich; St. Louis, Mo.; Cat No. 472301 Lot No. SHBD2072V).
(§2) The solvents were added to the test agents and the stock solutions stood for approximately 1 hr at room temperature prior to use to auto sterilize. Stock solutions were prepared at 40× the desired top concentration in the test plate.
(§3) All of the test isolates were originally received from either the American Type Culture Collection (ATCC), clinical labs, or directly from Aureogen Biosciences. Organisms stored by Micromyx were cultured on agar medium appropriate to each organism. Colonies were picked by swab from the isolation plates and put into suspension in appropriate broth containing cryoprotectant. The suspensions were aliquoted into cryogenic vials and maintained at −80° C.
(§4) Prior to testing, Candida isolates were streaked from the frozen vials on Sabouraud dextrose agar. The yeast isolates were incubated for 48 hours at 35° C. before use. The fungal isolates were obtained from enumerated fungal stocks previously prepared at Micromyx and stored in phosphate buffered saline at 4° C.
(§5) Test Media. The medium employed for the MIC assay was RPMI-1640 medium from HyClone Laboratories (Logan, Utah; Lot No. AYB60287A). The medium was prepared according to Clinical and Laboratory Standards Institute (CLSI) guidelines (1, 2), and modified to include 0.002% Tween-80. Candida parapsilosis ATCC 22019 (MMX 2323) and Aspergillus fumigatus ATCC MYA-3626 (MMX 5280) were also tested without Tween-80 to provide data for the quality control of amphotericin B in accordance with CLSI (3) and to assess the effect of Tween-80 on the activity of the test agents.
(§6) Test Procedure. The MIC assay method followed the procedure described by CLSI (1, 2) and employed automated liquid handlers to conduct serial dilutions and liquid transfers. Automated liquid handlers included the Multidrop 384 (Labsystems, Helsinki, Finland), Biomek 2000 and Biomek FX (Beckman Coulter, Fullerton Calif.). The wells in columns 2-12 in standard 96-well microdilution plates (Costar 3795) were filled with 150 μl of the appropriate diluent (95% EtOH for investigational compounds, 100% DMSO for amphotericin B). These assay plates would become the ‘mother plates’ from which the assay ‘daughter plates’ would be prepared. The drugs (300 μL at 40× the desired top concentration in the test plates) were dispensed into the appropriate well in Column 1 of the mother plates. The Biomek 2000 was used to make two-fold serial dilutions through Column 11 in the “mother plate”. The wells of Column 12 contained no drug and served as the organism growth control wells.
(§7) The daughter plates were loaded with 185 μL per well on the Multidrop 384 with RPMI plus 0.002% Tween-80 or RPMI containing no Tween-80 for the testing of the two QC isolates. The daughter plates were prepared on the Biomek FX instrument which transferred 5 μL of drug solution from each well of a mother plate to each corresponding well of each daughter plate in a single step.
(§8) A standardized inoculum of each organism was prepared per CLSI methods (1, 2). For the Candida isolates, colonies were picked from the streak plate and a suspension was prepared in RPMI to equal a 0.5 McFarland standard. This suspension was diluted 1:100 in RPMI resulting in a final concentration of approximately 0.5-2.5×10^3 CFU/mL. […]

[2] = system: A. fumigatus MMX 6781 ATCC MYA-4609; assay: MIC/MEC assay (CLSI microdilution); format: cell-based; conditions: Aspergillus fumigatus; for MIC: 48 h, RPMI plus 0.002% Tween-80, read-out: MIC; for minimal effective concentration: RPMI plus 0.002% Tween-80, 48 hr
Protocol: as §1, §2, §3, §4, §5, §6, §7, §8

A. flavus MMX 5948 = assay: MIC/MEC assay (CLSI microdilution); format: cell-based; conditions: Aspergillus flavus, MMX5948, 48 h; for minimal effective concentration: RPMI plus 0.002% Tween-80; for MIC: RPMI plus 0.002% Tween-80, read-out: MIC
Protocol: as §1, §2, §3, §4, §5, §6, §7, §8

[3] = system: A. niger MMX 0624 ATCC 16888; assay: MIC/MEC assay (CLSI microdilution); format: cell-based; conditions: for minimal effective concentration: RPMI plus 0.002% Tween-80, read-out: MEC
Protocol: as §1, §2, §3, §4, §5, §6, §7, §8

[4] = system: A. fumigatus from Aureogen; assay: MIC/MEC assay (CLSI microdilution); format: cell-based; conditions: Aspergillus fumigatus, 48 h; for minimal effective concentration: RPMI plus 0.002% Tween-80; for MIC: RPMI plus 0.002% Tween-80, read-out: MIC
Protocol: as §1, §2, §3, §4, §5, §6, §7, §8

A. fumigatus MMX 5944 = assay: MIC/MEC assay (CLSI microdilution); format: cell-based; conditions: Aspergillus fumigatus, MMX5944, 48 h; for minimal effective concentration: RPMI plus 0.002% Tween-80; for MIC: RPMI plus 0.002% Tween-80, read-out: MIC
Protocol: as §1, §2, §3, §4, §5, §6, §7, §8

[5] = system: A. fumigatus MMX 6782 ATCC 13073; assay: MIC/MEC assay (CLSI microdilution); format: cell-based; conditions: Aspergillus fumigatus, ATCC13073, 48 h; for minimal effective concentration: RPMI plus 0.002% Tween-80, read-out: MEC; for MIC: RPMI plus 0.002% Tween-80, read-out: MIC
Protocol: as §1, §2, §3, §4, §5, §6, §7, §8

[6] = system: C. parapsilosis MMX 2323 ATCC 22019; assay: MIC assay (CLSI microdilution); format: cell-based, Candida parapsilosis; conditions: read-out: MIC
Protocol: as §1, §2, §3, §4, §5, §6, §7, §8

[7] = system: C. albicans MMX 2000 ATCC 10231; assay: MIC assay (CLSI microdilution); format: cell-based; conditions: Candida albicans, ATCC10231, RPMI plus 0.002% Tween-80; read-out: MIC
Protocol: as §1, §2, §3, §4, §5, §6, §7, §8

[8] = system: C. neoformans MMX 0634 ATCC 90112; assay: MIC assay (CLSI microdilution); format: cell-based; conditions: Cryptococcus neoformans, ATCC90112, RPMI plus 0.002% Tween-80; read-out: MIC
Protocol: as §1, §2, §3, §4, §5, §6, §7, §8

[9] = RPMI plus 0.002% Tween-80, read-out: MEC
[10] = RPMI plus 0.002% Tween-80, read-out: MIC
[11] = Without Tween-80, read-out: MEC
[12] = Without Tween-80, read-out: MIC
[13] = RPMI plus 0.002% Tween-80, 48 hr
[14] = ATCC22019, RPMI plus 0.002% Tween-80
[15] = Aspergillus niger, ATCC16888, 48 h
[16] = Aspergillus niger, ATCC16888, 48 h, RPMI plus 0.002% Tween-80, read-out: MIC

| MIC [1, 10] [µg/mL] | MIC [1, 12] [µg/mL] | MIC [2] [µg/mL] | MIC (A. flavus MMX 5948) [µg/mL] | MIC [4] [µg/mL] | MIC (A. fumigatus MMX 5944) [µg/mL] | MIC [5] [µg/mL] | MIC [6, 14] [µg/mL] | MIC ([6]; ATCC22019, Without Tween-80) [µg/mL] | MIC [7] [µg/mL] | MIC [8] [µg/mL] | MIC [3, 16] [µg/mL] | Compound | minimal effective concentration [1, 9] [µg/mL] | minimal effective concentration [1, 11] [µg/mL] | minimal effective concentration [2] [µg/mL] | minimal effective concentration (A. flavus MMX 5948) [µg/mL] | minimal effective concentration [4] [µg/mL] | minimal effective concentration (A. fumigatus MMX 5944) [µg/mL] | minimal effective concentration [5] [µg/mL] | minimal effective concentration [3, 15] [µg/mL] | further results |
| --- | --- | --- | --- | --- | --- | --- | --- | --- | --- | --- | --- | --- | --- | --- | --- | --- | --- | --- | --- | --- | --- |
| > 64 | > 64 | > 64 | > 64 | > 64 | > 64 | > 64 | 1 | 2 (≈ 1.47 µM) | 0.12 | 0.25 | – | CC[C@H](C)[C@@H]1NC(=O)[C@@H]2CCCN2C(=O)[C@H](Cc2cccc(-c3ccc(N4CCN(C(=O)OC(C)(C)C)CC4)nc3)c2)N(C)C(=O)[C@H](Cc2ccccc2)NC(=O)[C@H](C(C)C)N(C)C(=O)[C@@H]([C@@H](C)CC)OC(=O)[C@H](C(C)(C)O)N(C)C(=O)[C@H](CC(C)C)NC(=O)[C@H](C(C)C)N(C)C1=O [Compound 26] (cyclo(F[X13]PI[NMeV]L[NMeVal(β-OH)][Hmp(2R,3S)][NMeV])) | > 64 | > 64 | > 64 | > 64 | > 64 | > 64 | > 64 | – | MEC [3, 13]: 2/2 μg/mL; MIC [3, 13]: 2/2 μg/mL |
| > 64 | > 64 | > 64 | > 64 | > 64 | > 64 | > 64 | 0.06 | 1 (≈ 0.791 µM) | 0.015 | 0.25 | 0.25 | CC[C@H](C)[C@@H]1NC(=O)[C@@H]2CCCN2C(=O)[C@H](Cc2cccc(-c3ccnc(N4CCOCC4)c3)c2)N(C)C(=O)[C@H](Cc2ccccc2)NC(=O)[C@H](C(C)C)N(C)C(=O)[C@@H]([C@@H](C)CC)OC(=O)[C@H](C(C)(C)O)N(C)C(=O)[C@H](CC(C)C)NC(=O)[C@H](C(C)C)N(C)C1=O [Compound 21] (cyclo(F[X24]PI[NMeV]L[NMeVal(β-OH)][Hmp(2R,3S)][NMeV])) | > 64 | > 64 | > 64 | 0.25 | > 64 | > 64 | > 64 | 0.06 | – |
| > 64 | > 64 | > 64 | 0.5 | > 64 | > 64 | > 64 | 0.06 | 1 (≈ 0.814 µM) | 0.015 | 0.25 | 0.12 | CC[C@H](C)[C@@H]1NC(=O)[C@@H]2CCCN2C(=O)[C@H](Cc2cccc(-c3ccc4ccncc4c3)c2)N(C)C(=O)[C@H](Cc2ccccc2)NC(=O)[C@H](C(C)C)N(C)C(=O)[C@@H]([C@@H](C)CC)OC(=O)[C@H](C(C)(C)O)N(C)C(=O)[C@H](CC(C)C)NC(=O)[C@H](C(C)C)N(C)C1=O [Compound 17] (cyclo(F[X18]PI[NMeV]L[NMeVal(β-OH)][Hmp(2R,3S)][NMeV])) | > 64 | > 64 | > 64 | 0.12 | > 64 | > 64 | > 64 | 0.06 | – |
| > 64 | > 64 | > 64 | 0.5 | > 64 | > 64 | > 64 | 0.12 | 1 (≈ 0.814 µM) | 0.03 | 0.25 | 0.25 | CCC(C)[C@@H]1NC(=O)[C@@H]2CCCN2C(=O)[C@H](Cc2cccc(-c3ccc4ncccc4c3)c2)N(C)C(=O)[C@H](Cc2ccccc2)NC(=O)[C@H](C(C)C)N(C)C(=O)[C@@H](C(C)CC)OC(=O)[C@H](C(C)(C)O)N(C)C(=O)[C@H](CC(C)C)NC(=O)[C@H](C(C)C)N(C)C1=O (stereo partly drawn) [Compound 18] (cyclo(F[X14]P[Ile(3ξ)][NMeV]L[NMeVal(β-OH)][X6][NMeV])) | > 64 | > 64 | > 64 | 0.25 | > 64 | > 64 | – | 0.06 | – |
